In patent publication US11629141B2, “Proteasome inhibitors and uses thereof” (CORNELL UNIVERSITY, priority 2015, dated 2023):
Read-outs that look alike come from different tables or passages of the source.

Legend:
c-20S β5c = molecular target: T1, c-20S β5c (Homo sapiens, UniProt P28074); assay: Kinetic analysis, substrate titration of c-20S steady state velocities; assay type: biochemical
T1 construct: purchased Boston Biochem Inc
Description: (§1) FIGS. 1A-1E are graphs showing inhibition modality of PKS21004 against human proteasomes. Washout of c-20S from the preincubated c-20S and […] to recover the β5c activity (FIG. 1A). Substrate titration of hu i-20S (FIG. 1B) and c-20S (FIG. 1D) steady state velocities in the presence of PKS21004 at the concentrations indicated next to each curve. Data as in (FIG. 1B) were plotted double reciprocal in (FIG. 1C), and (FIG. 1D) in (FIG. 1E).
(§2) A washout experiment was used to confirm the reversibility of this class of proteasome inhibitors, as expected from their non-covalent chemistry.

hu i-20S β5i = molecular target: T2, hu i-20S β5i (Homo sapiens, UniProt P28062); assay: Kinetic analysis, substrate titration of hu i-20S steady state velocities; assay type: biochemical
T2 construct: purchased Boston Biochem Inc
Description: as §1, §2

β1c = molecular target: T3, β1c (Homo sapiens, UniProt P28072); assay: Inhibition of β1c activity; assay type: biochemical; settings: no inhibition <33 μM
T3 construct: purchased Boston Biochem Inc
Description: The foregoing features of these AsnEDA encouraged a further round of SAR studies (Table 5) based on varying the carboxylic acid at the ethylenediamine, the N-cap at the Asn, and the side chain of the Asn, based on PKS21004. All compounds listed in the Table 5 were synthesized as described in Examples 6-77. All final compounds were confirmed by NMR and HRMS. IC50s of all compounds against β5i and β5c (Table 5), β1i, β2i, β1c and β2c were determined following a reported method (Lin et al., “N,C-Capped Dipeptides With Selectivity for Mycobacterial Proteasome Over Human Proteasomes: Role of S3 and S1Binding Pockets,” J Am Chem Soc. 135:9968-9971 (2013), which is hereby incorporated by reference in its entirety). […] The [1,1′-biphenyl]-3-carboxamide of PKS21004 was then modified with the following substituents: 4′-fluoro (PKS21026), 4′-cyano (PKS21028), 4-fluoro (PKS21196), 4,3′-difluoro (PKS21195) and 4,2′-difluoro (PKS21187).

P. berghei = assay: Killing of P. berghei sporozoite stage in HepG2 cells; assay type: cell-based; settings: Plasmodium berghei
[1] = fit to equation for noncompetitive inhibitors

For `CC(C)(C)NC(=O)C[C@H](NC(=O)CCc1ccccc1)C(=O)NCCNC(=O)c1cccc(-c2ccccc2)c1` [PKS21004], the Ki (c-20S β5c) was 550 nM, the “α for c-20S” value (c-20S β5c; [1]) was 0.98 and ≈ 0.57 and the “modality of inhibition of β5c” value (c-20S β5c; with respect to substrate) was “noncompetitive inhibitor”. The Ki (hu i-20S β5i) was 77 nM, the “α for i-20S (β5i)” value (hu i-20S β5i; [1]) was 0.28 and ≈ 0.28 and the “modality of inhibition of β5i” value (hu i-20S β5i; with respect to substrate) was “noncompetitive inhibitor”. The “IC50 against β1c” value (β1c) was “no inhibition”, the EC50 (P. berghei; read-out: EC50 killing of P. berghei, compound & sporozoites incubated with HepG2, media replaced after 14 hours) was 21 nM and the EC50 (P. berghei; compound & sporozoites incubated with HepG2, media replaced after 6 hours, read-out: EC50 killing of P. berghei, 6 hours) was 41 nM. It also gave an EC50 (P. berghei; sporozoites pre-treated 30 minutes on ice, added to HepG2, media replaced after 4 hours, read-out: EC50 killing of P. berghei, sporozoites pre-treated (P/T)) of 157 nM.
